Experimental data reported in ChEMBL document CHEMBL4507325 (2021).

What was measured:
Conditions in all cases: Compound concentration 10.0 uM
[1] = target: Alpha-2B adrenergic receptor (Homo sapiens) (UniProt P18089)
[2] = target: Muscarinic acetylcholine receptor M2 (Homo sapiens) (UniProt P08172)
[3] = target: 5-hydroxytryptamine receptor 1D (Homo sapiens) (UniProt P28221)
[4] = target: Glutamate NMDA receptor (Rattus norvegicus) (UniProt P35439+Q00959+Q00960+Q00961+Q62645+Q8VHN2+Q9R1M7)
[5] = target: Muscarinic acetylcholine receptor M5 (Homo sapiens) (UniProt P08912)
Sequence of Muscarinic acetylcholine receptor M5 (Homo sapiens) (P08912 whole entry): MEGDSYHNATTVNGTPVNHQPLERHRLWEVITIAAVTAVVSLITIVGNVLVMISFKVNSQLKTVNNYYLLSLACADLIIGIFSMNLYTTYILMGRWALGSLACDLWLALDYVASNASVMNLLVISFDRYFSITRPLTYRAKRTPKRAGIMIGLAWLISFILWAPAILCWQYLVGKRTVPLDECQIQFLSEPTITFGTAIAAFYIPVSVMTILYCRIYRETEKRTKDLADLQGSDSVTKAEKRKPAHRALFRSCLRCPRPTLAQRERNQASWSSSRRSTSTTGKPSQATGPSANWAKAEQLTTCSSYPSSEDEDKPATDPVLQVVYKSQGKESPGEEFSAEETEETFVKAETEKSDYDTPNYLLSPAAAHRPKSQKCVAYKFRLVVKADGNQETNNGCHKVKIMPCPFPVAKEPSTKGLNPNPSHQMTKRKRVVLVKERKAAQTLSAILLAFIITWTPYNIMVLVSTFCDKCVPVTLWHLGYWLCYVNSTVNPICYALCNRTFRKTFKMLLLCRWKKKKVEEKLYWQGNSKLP

Rattus norvegicus = species on record: Rattus norvegicus
[6] = target: 5-hydroxytryptamine receptor 1E (Homo sapiens) (UniProt P28566)
Sequence of 5-hydroxytryptamine receptor 1E (Homo sapiens) (P28566 whole entry): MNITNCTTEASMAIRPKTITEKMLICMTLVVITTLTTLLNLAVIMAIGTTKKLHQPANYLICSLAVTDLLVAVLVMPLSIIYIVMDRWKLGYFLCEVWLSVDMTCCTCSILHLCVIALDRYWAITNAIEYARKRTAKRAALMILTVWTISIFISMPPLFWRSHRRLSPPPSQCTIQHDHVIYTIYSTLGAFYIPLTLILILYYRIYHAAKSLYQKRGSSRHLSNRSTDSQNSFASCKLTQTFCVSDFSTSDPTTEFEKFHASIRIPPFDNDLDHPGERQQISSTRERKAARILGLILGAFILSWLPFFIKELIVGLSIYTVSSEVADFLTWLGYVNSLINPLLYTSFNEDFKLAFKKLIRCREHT

[7] = target: Histamine H2 receptor (Homo sapiens) (UniProt P25021)
Sequence of Histamine H2 receptor (Homo sapiens) (P25021 whole entry): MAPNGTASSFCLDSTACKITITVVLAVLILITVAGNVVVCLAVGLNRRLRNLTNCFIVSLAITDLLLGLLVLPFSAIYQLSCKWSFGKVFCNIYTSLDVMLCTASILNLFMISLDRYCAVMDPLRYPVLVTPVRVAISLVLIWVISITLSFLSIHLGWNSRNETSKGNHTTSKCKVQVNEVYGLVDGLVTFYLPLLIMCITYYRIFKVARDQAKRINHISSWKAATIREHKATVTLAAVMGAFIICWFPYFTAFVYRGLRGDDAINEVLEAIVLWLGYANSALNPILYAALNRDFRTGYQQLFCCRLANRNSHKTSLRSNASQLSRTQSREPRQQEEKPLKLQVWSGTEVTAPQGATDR

[8] = target: Histamine H1 receptor (Homo sapiens) (UniProt P35367)
Sequence of Histamine H1 receptor (Homo sapiens) (P35367 whole entry): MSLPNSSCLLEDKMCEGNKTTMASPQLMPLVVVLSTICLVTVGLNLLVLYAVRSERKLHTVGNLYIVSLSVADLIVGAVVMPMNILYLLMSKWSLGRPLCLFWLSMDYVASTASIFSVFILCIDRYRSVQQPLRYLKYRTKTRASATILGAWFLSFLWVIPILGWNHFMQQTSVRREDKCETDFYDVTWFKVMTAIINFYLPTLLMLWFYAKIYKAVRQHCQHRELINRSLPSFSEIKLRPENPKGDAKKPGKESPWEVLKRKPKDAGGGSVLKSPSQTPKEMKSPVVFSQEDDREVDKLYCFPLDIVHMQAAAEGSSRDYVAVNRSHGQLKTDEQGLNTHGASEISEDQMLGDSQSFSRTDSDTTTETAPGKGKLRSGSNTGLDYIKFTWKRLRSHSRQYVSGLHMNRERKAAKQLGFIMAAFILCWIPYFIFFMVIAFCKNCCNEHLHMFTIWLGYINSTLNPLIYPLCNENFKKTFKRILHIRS

Sequence of 5-hydroxytryptamine receptor 1D (Homo sapiens) (P28221 whole entry): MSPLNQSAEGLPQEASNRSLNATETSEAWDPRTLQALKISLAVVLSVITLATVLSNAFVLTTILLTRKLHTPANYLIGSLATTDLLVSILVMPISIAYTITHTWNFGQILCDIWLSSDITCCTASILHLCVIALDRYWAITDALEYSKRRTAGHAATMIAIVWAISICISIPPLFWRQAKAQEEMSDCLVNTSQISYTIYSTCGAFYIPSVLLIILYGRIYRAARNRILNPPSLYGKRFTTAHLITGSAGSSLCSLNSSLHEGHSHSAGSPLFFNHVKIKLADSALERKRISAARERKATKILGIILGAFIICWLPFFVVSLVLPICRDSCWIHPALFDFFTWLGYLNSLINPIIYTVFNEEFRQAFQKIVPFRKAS
Sequence of Muscarinic acetylcholine receptor M2 (Homo sapiens) (P08172 whole entry): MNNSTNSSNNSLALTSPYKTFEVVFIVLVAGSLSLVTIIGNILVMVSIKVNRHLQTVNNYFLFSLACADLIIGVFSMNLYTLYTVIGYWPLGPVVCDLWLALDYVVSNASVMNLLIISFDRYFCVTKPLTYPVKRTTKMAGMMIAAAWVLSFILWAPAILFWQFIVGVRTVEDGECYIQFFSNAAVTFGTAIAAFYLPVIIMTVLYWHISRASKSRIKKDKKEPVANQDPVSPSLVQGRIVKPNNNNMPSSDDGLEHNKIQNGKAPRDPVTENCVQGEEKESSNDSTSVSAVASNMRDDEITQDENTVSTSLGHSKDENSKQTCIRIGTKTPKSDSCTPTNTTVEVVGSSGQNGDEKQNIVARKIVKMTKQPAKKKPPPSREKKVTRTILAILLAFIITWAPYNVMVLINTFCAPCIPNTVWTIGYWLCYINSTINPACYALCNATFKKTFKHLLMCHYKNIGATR
Sequence of Alpha-2B adrenergic receptor (Homo sapiens) (P18089 whole entry): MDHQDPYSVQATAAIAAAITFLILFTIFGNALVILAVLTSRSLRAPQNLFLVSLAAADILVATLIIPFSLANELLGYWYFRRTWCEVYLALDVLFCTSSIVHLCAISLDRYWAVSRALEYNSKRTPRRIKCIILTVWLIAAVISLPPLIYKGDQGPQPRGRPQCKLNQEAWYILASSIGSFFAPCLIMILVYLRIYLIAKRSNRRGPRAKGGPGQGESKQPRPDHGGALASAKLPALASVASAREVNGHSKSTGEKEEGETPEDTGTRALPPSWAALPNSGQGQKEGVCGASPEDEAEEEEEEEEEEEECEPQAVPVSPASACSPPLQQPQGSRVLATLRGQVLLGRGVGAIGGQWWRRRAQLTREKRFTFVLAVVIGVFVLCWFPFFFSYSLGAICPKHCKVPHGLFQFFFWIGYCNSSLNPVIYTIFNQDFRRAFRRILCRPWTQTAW

- inhibition [1]: -8.63%
- inhibition [2]: 39.2%
- inhibition [3]: 0.75%
- inhibition [4]: 11%
- inhibition [5]: -5.66%
- inhibition (Rattus norvegicus): 46%
- inhibition [6]: 4.31%
- inhibition [7]: 5.46%
- inhibition [8]: 10.3%
Compound: Cc1ccccc1Oc1cc(-n2c(=O)cc(C(F)(F)F)[nH]c2=O)c2ccccc2c1Cl [BAY-069]
